# How the values were obtained:
# HBV polymerase = biological target: T1, HBV polymerase (Hepatitis B virus genotype A2 subtype adw2, UniProt P03159); assay: In vitro reverse transcription activity of HBV polymerase (ELISA-type, DIG/biotin nucleotides); type: biochemical; conditions: for inhibition at 0.01 µg/mL / inhibition at 0.1 µg/mL / inhibition at 1 µg/mL: read-out: Inhibition activity on HBV-RT (%)
# T1 construct: made in house; host or cells: E. coli
# Experimental: <Experiment 1> Inhibitory Effect on the In Vitro Activities of HBV Polymerase in Reverse Transcription
# The following in vitro experiment was performed to determine the effect of the compounds of formula 1 on the activity of HBV polymerase during reverse transcription.
# The present inventors submitted application for a patent concerning HBV polymerase genetically expressed in and separated from E.coli, the process of its preparation, and the method to measure the enzyme activities (KR 94-3918, KR 96-33998). In the present experiments HBV polymerase was used which had been expressed in E. coli as stated above.
# The method used in the present invention to measure in vitro reverse transcribing activities of HBV polymerase is as follows. Basic principles are the same as for ELISA. Nucleotides with biotin or digoxigenin group attached are included as substrates and anti-DIG antibodies attached to peroxidase enzyme recognize the polymerized substrates.
# To the wells coated with streptavidin, 20 μl of HBV polymerase, 20 μl of reaction mixture (10 μM each of DIG-UTP and Biotin-UTP, 46 mM Tris-HCl, 266 mM KCl, 27.5 mM MgCl2, 9.2 mM DTT substrate/primer nybrid), and 20 μl of test compound (added to 1, 0.1, and 0.01 μg/ml) were added and allowed to react at 22° C. for 15 hrs. During this reaction, HBV polymerase catalyzes DNA synthesis and digoxigenin and biotin attached to nucleotides form bonds with streptavidin coated on the bottom of wells. When the reaction was done, each well was washed with 250 μl of cleaning buffer (pH 7.0) for 30 seconds, which was repeated five times to remove remaining impurities. 200 μl of anti-DIG-POD antibody was added to each well and allowed to react for 1 hr at 37° C., and the wells were washed with cleaning buffer to remove impurities. 200 μl each of ABTS™, a substrate of peroxidase, was then added and allowed to react at room temperature for 30 min. Absorbance was measured at 405 nm using ELISA reader.
# The percentage of reduction in HBV polymerase activities for reverse transcription was calculated using the group without test compound as a control and the results are shown in Table 3.
# HBV = assay: Proliferation of HBV in HBV producing cell line HepG 2.2.15 (competitive PCR of culture supernatant); type: cell-based, Hepatitis B virus; conditions: HepG 2.2.15, one week
# Experimental: <Experiment 2> Inhibitory Effect on the Proliferation of HBV in HBV Producing Cell Line
# The following experiment was performed to determine inhibitory effects of compounds of formula 1 on the proliferation of HBV producing cell line.
# To test for antiviral effect, replication and proliferation of HBV were measured in HepG 2.2.15, a human liver cancer cell line.
# The cell concentration was adjusted to 1×10^5 cells/ml and 1 ml was added to each well of a 24-well cell culture plate, which was then kept in a culture box for 3-4 days at 37° C. under 5% CO2 until cells grew sufficiently, changing culture medium everyday. When the cells matured sufficiently, the test compounds were added to the final concentrations of 0.01, 0.1, and 1 μg/ml. One week after the addition of test compounds, the culture solution was centrifuged at 5,000 rpm for 10 min. 25 μl of supernatant was transferred to a new tube and 5 μl of lysis solution [0.54N NaOH, 0.06% NP40] was added to each tube. After keeping the tube at 37° C. for 1 hr, 30 μl of neutralizing solution [0.09N HCl 0.1MTris-HCl, pH7.4] was added as a reaction solution for competitive polymerase chain reaction (PCR).
# PCR was performed using genetic sequence of HBV core protein as a matrix. PCR reaction was carried out by adding 1 unit of Taq polymerase enzyme to 25 pmol of each primer, 250 μM dNTP, 5 μl of PCR reaction solution [0.54N NaOH, 0. 06% NP40, 0.09N HCl, 0.1M Tris-HCl, pH 7.4].
# DNA polymerized by PCR was electrophoresed on Agarose gel and quantitatively analyzed using an image analyzer (Gel Doc 1000, Bio-Rad) in order to evaluate the effect of compounds of the present invention on the reduction of HBV proliferation.
# 3TC (lamivudine) was used as a positive control at the same concentrations as those of the test compounds. The percentage of reduction in HBV proliferation was calculated using the group without test compound as a control and the results are represented in Table 4.
# [1] = biological target: T2, HIV reverse transcriptase (Human immunodeficiency virus type 1 group M subtype B, UniProt P03366); assay: In vitro HIV reverse transcriptase activity (non-radioactive RT assay kit); type: biochemical
# T2 construct: purchased Boehringer Mannheim
# Experimental: <Experiment 3> Inhibitory Effect on the In Vitro HIV Enzyme Activities in Reverse Transcription
# The following in vitro experiments were done to determine the effect of compounds of formula 1 on the reduction of HIV enzyme activities in reverse transcription.
# Non-radioactive reverse transcriptase assay kit (Boehringer Mannheim) was used in the measurement of in vitro transcriptase activities. 20 μl (40 ng) of HIV transcriptase and 20 μl of reaction mixture containing matrix-primer hybrid poly(A)oligo(dT)15, DIG(digoxigenin)-dUTP, biotin-dUTP, and TTP were added to wells coated with streptavidin. Test compounds were also added at the final concentrations of 0.1 and 1 μg/ml and allowed to react at 37° C. for 1 hr. At this time, DNA is formed from RNA by the action of HIV reverse transcriptase, forming bonds with streptavidin coated on the bottom of wells because of digoxigenin and biotin moieties attached to nucleotides.
# When the reaction was completed, each well was washed with 250 μl of cleaning buffer (pH7.0) for 30sec. five times to remove remaining impurities. 200 μl of anti-DIG-POD […] was added to each well, allowed to react at 37° C. for 1 hr and washed as above to remove impurities. 200 μl of ABTS™, a substrate for peroxidase, was added to each well and allowed to react at room temperature for 30 min. Absorbance at 405 nm was then read for each solution using ELISA reader and used for quantitative determination of inhibitory effect on the HIV transcriptase activities. The percentage of reduction in the activities of HIV reverse transcriptase was calculated using the group without test compound as control and the results are represented in Table 5.
# T1 sequence (P03159 whole entry): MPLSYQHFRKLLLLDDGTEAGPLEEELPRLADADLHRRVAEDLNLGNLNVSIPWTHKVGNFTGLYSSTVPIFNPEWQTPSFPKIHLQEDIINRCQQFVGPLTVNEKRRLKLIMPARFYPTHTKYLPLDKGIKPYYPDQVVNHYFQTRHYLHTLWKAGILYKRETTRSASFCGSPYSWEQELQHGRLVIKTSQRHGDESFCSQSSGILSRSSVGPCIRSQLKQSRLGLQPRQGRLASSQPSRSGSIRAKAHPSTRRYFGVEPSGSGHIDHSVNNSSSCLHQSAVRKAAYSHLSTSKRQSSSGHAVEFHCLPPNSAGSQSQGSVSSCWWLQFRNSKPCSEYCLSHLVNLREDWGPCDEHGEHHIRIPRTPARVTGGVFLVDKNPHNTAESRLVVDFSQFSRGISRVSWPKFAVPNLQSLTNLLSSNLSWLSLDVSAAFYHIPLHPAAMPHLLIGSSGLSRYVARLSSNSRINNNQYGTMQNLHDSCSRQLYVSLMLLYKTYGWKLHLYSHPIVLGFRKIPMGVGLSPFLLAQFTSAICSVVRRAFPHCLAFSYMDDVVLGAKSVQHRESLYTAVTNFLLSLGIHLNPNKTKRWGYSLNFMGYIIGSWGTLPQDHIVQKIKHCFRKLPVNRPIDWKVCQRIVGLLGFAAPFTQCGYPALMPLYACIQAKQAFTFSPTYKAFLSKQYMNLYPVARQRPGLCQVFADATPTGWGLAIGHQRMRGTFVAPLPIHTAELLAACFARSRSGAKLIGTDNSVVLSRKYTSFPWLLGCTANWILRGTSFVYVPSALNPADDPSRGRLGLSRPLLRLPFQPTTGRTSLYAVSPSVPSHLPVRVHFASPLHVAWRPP
Molecule,Inhibition activity on HBV-RT (%) (HBV polymerase; 0.01 μg/ml test compound),Inhibition activity on HBV-RT (%) (HBV polymerase; 0.1 μg/ml test compound),Inhibition activity on HBV-RT (%) (HBV polymerase; 1 μg/ml test compound),inhibition at 0.01 µg/mL (HBV polymerase; 0.01 μg/ml test compound) [%],inhibition at 0.1 µg/mL (HBV polymerase; 0.1 μg/ml test compound) [%],inhibition at 1 µg/mL (HBV polymerase; 1 μg/ml test compound) [%],also measured
6-(2-hydroxyethyl)methylamino-2-(1H-5-indazolylamino)-3-nitropyridine [Example 10],50,58,78,–,–,–,–
"COCC(C)Nc1ccc([N+](=O)[O-])c(Nc2ccc3[nH]ncc3c2)n1 (stereo not drawn) [Example 15, 2-(1H-5-indazolylamino)-6-(2-methoxy-1-methyl)ethylamino-3-nitropyridine]",47,68,97,–,–,–,Inhibitory effect on the HBV proliferation: Inhibition activity on HBV-RT (%) (HBV; 0.01 μg/ml): 36%; Inhibitory effect on the HBV proliferation: Inhibition activity on HBV-RT (%) (HBV; 0.1 μg/ml): 60%; Inhibitory effect on the HBV proliferation: Inhibition activity on HBV-RT (%) (HBV; 1 μg/ml): 95%
"CN1CCN(c2ccc([N+](=O)[O-])c(Nc3ccc4cn[nH]c4c3)n2)CC1 [Example 26, 2-(1H-6-indazolylamino)-6-(4-methyl-1-piperazinyl)-3-nitropyridine]",–,–,–,18,40,63,–
"O=[N+]([O-])c1ccc(N2CCN(CCO)CC2)nc1Nc1ccc2cn[nH]c2c1 [Example 27, 6-[4-(2-hydroxyethyl)-1-piperazinyl]-2-(1H-6-indazolylamino)-3-nitropyridine]",–,–,–,15,38,60,Inhibitory effect on the activities of HIV reverse transcriptase: Inhibition activity on HIV-RT (%) ([1]; 0.1 μg/ml test compound): 45%; Inhibitory effect on the activities of HIV reverse transcriptase: Inhibition activity on HIV-RT (%) ([1]; 1 μg/ml test compound): 81%
"O=[N+]([O-])c1ccc(NCc2cccnc2)nc1Nc1ccc2[nH]ncc2c1 [Example 19, 2-(1H-5-indazolylamino)-3-nitro-6-(3-pyridyl)methylaminopyridine]",–,–,–,42,58,91,"inhibition at 0.01 µg/mL (HBV; Hepatitis B virus, HepG2.2.15, 168 h, 0.01 μg/ml, read-out: Inhibitory effect on the HBV proliferation: Inhibition activity on HBV-RT (%)): 30%; inhibition at 0.1 µg/mL (HBV; Hepatitis B virus, HepG2.2.15, 168 h, 0.1 μg/ml, read-out: Inhibitory effect on the HBV proliferation: Inhibition activity on HBV-RT (%)): 51%; inhibition at 1 µg/mL (HBV; Hepatitis B virus, HepG2.2.15, 168 h, 1 μg/ml, read-out: Inhibitory effect on the HBV proliferation: Inhibition activity on HBV-RT (%)): 85%"
"CNc1ccc([N+](=O)[O-])c(Nc2ccc3[nH]ncc3c2)n1 [Example 3, 2-(1H-5-indazolylamino)-6-methyl amino-3-nitropyridine]",20,47,58,–,–,–,Inhibitory effect on the HBV proliferation: Inhibition activity on HBV-RT (%) (HBV; 0.1 μg/ml): 35%; Inhibitory effect on the HBV proliferation: Inhibition activity on HBV-RT (%) (HBV; 1 μg/ml): 53%
"CN(C)CCNc1ccc([N+](=O)[O-])c(Nc2ccc3cn[nH]c3c2)n1 [Example 16, 6-[2-(dimethylamino)ethylamino]-2-(1H-6-indazolylamino)-3-nitropyridine]",–,–,–,38,55,80,Inhibitory effect on the activities of HIV reverse transcriptase: Inhibition activity on HIV-RT (%) ([1]; 0.1 μg/ml test compound): 51%; Inhibitory effect on the activities of HIV reverse transcriptase: Inhibition activity on HIV-RT (%) ([1]; 1 μg/ml test compound): 75%
"O=[N+]([O-])c1ccc(N2CCC(O)CC2)nc1Nc1ccc2cn[nH]c2c1 [Example 29, 6-(4-hydroxy-1-piperidinyl)-2-(1H-6-indazolylamino)-3-nitropyridine]",–,–,–,10,35,52,–

# Reference: patent US6743795B1, “3-nitropyridine derivaives and the pharmaceutical compositions containing said derivatives” (Dong Wha Pharm. Ind. Co. Ltd., priority 1999, dated 2004)
